Consider 13 compounds from patent EP1100483B1, “GLUCOCORTICOID-SELECTIVE ANTI-INFLAMMATORY AGENTS” (Abbott Laboratories, priority 1998, dated 2000).

Structures are written as SMILES. Where two headings read alike, the source gives them in different places.

This test concerns the target T1, human glucocorticoid receptor-α [GRX] isoform (Homo sapiens, UniProt P04150).
T1 construct: purchased Ligand Pharmaceuticals (San Diego, CA); host or cells: insect SF21 cells (baculovirus)
T1 sequence (P04150 1-777): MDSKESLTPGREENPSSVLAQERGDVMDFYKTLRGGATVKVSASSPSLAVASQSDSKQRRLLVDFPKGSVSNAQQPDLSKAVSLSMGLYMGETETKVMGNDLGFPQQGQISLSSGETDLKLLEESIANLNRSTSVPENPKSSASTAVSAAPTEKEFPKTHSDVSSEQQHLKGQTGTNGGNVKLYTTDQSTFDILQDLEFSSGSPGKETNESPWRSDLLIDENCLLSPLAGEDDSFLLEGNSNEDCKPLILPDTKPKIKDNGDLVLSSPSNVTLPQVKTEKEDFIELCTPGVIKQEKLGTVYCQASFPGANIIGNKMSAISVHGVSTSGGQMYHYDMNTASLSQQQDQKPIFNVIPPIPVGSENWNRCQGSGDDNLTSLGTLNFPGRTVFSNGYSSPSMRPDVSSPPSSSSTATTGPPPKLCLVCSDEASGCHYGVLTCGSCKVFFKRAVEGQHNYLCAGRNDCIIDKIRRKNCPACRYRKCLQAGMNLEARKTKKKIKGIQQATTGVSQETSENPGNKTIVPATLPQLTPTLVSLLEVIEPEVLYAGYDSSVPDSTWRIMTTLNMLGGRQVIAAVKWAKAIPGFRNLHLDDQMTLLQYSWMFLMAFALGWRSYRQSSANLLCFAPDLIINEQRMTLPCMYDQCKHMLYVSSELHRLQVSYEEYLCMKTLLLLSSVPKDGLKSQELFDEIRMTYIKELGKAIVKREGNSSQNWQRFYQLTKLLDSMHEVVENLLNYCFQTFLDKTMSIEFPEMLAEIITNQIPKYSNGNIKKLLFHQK
Put plainly: glucocorticoid receptor (GR) cytosol binding assay, [3H]-dexamethasone competition. From the text:
For glucocorticoid receptor (OR) cytosol binding assays, the procedure described in Anal. […] Briefly, cytosol preparations of human glucocorticoid receptor-α [GRX] isoform and human progesterone receptor-A [PRA] isoform were obtained from Ligand Pharmaceuticals (San Diego, CA). Both receptor cDNAs were cloned into baculovirus expression vectors and expressed in insect SF21 cells. […] Glass fiber type C multiscreen MAFC NOB plates were from Millipore ( Burlington, MA). Hydroxyapatide Bio-Gel HTP gel was obtained from Bio-Rad Laboratories (Hercules. CA). Tris(hydroxymethyl)aminomethane (Tris), ethylenediaminetetraacetic acid (EDTA), glycerol, dithiothreitol (DTT) and sodium moylybdate were obtained from Sigma Chemicals (St. Louis, MO). Microscint-20 scintillation fluid was obtained from Packard Instrument (Meriden, CT). […] GRX and PRA binding reactions were performed in Millipore Multiscreen plates. […] Specific binding was defined as the difference between binding of [^3H]Dex in the absence and in the presence of 1µM unlabeled Dex. After an overnight incubation, 50 µL of hydroxyapatite (25 % weight/volume) slurry were added to each well and plates were incubated for 10 min at 4 °C in a plate shaker. Plates were suctioned with a Millipore vacuum manifold and each well was rinsed with 300 µL of ice-cold binding buffer. A 250 µL aliquot of Packard Microscint-20 was added to each well and the wells were shaken at room temperature for 20 minutes. The amount of radioactivity was determined with a Packard TopCount plate reader.

Setting [1] is: [3H]-Dex ~0.9 nM, GRX cytosol, 4 °C overnight, Cheng-Prusoff, read-out: Ki (nM) GR.

One may read the Ki as the dissociation constant of the complex between target and ligand, obtained from inhibition or displacement.

In the case of `CN(C)c1ccc(C(c2ccc(N(C)C)cc2)c2cc([N+](=O)[O-])ccc2Cl)cc1` [Example 1, 4',4" bis(dimethylamino)-2-chloro-5-nitrotriphenylmethane], the Ki under setting [1] was found to be 272 nM.

As to `CNc1ccc(C(c2ccc(NC)cc2)c2cc([N+](=O)[O-])ccc2Cl)cc1` [Example 23, 4',4" bis(methylamino)-2-chloro-5-nitrotriphenylmethane], under setting [1], the Ki amounted to 60 nM.

Compound `CN(C)c1ccc(C(c2ccc(N(C)C)cc2)c2cc(Cl)ccc2Cl)cc1` [Example 24, 4',4" bis(dimethylamino)-2,5-dichlorotriphenylmethane] came in with a Ki of 306 nM.

Regarding `CNc1ccc(C(c2ccc(NC)cc2)c2cc(Cl)ccc2Cl)cc1` [Example 27, 4',4" bis(methylamino)-2,5-dichlorotriphenylmethane], the Ki under setting [1] was found to be 71 nM.

Take `CC(=O)OCCN(C)c1ccc(C(c2ccc(N(C)CCOC(C)=O)cc2)c2cc([N+](=O)[O-])ccc2Cl)cc1` [Example 31, 4',4" bis(N-(2-acetoxyethyl) N-methylamino)-2-chloro-5-nitrotriphenylmethane]: the Ki under setting [1] was 145 nM.

`CN(CCO)c1ccc(C(c2ccc(N(C)CCO)cc2)c2cc([N+](=O)[O-])ccc2Cl)cc1` [Example 32, 4',4" bis(N-(2-hydroxyethyl) N-methylamino)-2-chloro-5-nitrotriphenylmethane]: the Ki under setting [1] was found to be 136 nM.

For `O=[N+]([O-])c1ccc(Cl)c(C(c2ccc(NCc3ccccc3)cc2)c2ccc(NCc3ccccc3)cc2)c1` [Example 36, 4',4" bis(N-benzylamino)-2-chloro-5-nitrotriphenylmethane], under setting [1], the Ki came to 38 nM.

Turning to `CNc1ccc(C(c2ccc(N(C)C)cc2)c2cc([N+](=O)[O-])ccc2Cl)cc1` (stereo not shown) [Example 39, 4'-dimethylamino-4"-methylamino-2-chloro-5-nitrotriphenylmethane], the Ki is 127 nM.

`CN(C)c1ccc(C(c2ccc(N(C)CCO)cc2)c2cc([N+](=O)[O-])ccc2Cl)cc1` (stereo not shown) [Example 42, 4'-dimethylamino-4"-(N-methyl-N-(2-hydroxyethyl)amino)-2-chloro-5-nitrotriphenylmethane] yielded a Ki of 109 nM.

For the compound `CNc1ccc(C(c2ccc(N(C)CCOC(C)=O)cc2)c2cc([N+](=O)[O-])ccc2Cl)cc1` (stereo not shown) [Example 49, 4'-methylamino-4"-(N-(2-acetoxyethyl)-N-methylamino)-2-chloro-5-nitrotriphenylmethane], the Ki under setting [1] came to 135 nM.

`CC(=O)OCCN(C)c1ccc(C(c2ccc(N(C)C)cc2)c2cc([N+](=O)[O-])ccc2Cl)cc1` (stereo not shown) [Example 51, 4'-dimethylamino-4"-(N-methyl-N-(2-acetoxyethyl)amino)-2-chloro-5-nitrotriphenylmethane] gave a Ki of 167 nM.

As for `CN(C)c1ccc(C(Oc2ccccc2)c2cc([N+](=O)[O-])ccc2Cl)cc1` (stereo not shown) [Example 52, phenyl-[(4'-dimethylaminophenyl)-(2-chloro-5-nitrophenyl)methyl] ether], the Ki under setting [1] worked out at 733 nM.

Regarding `CN(C)c1ccc(C(Sc2ccccc2)c2cc([N+](=O)[O-])ccc2Cl)cc1` (stereo not shown) [Example 54, phenyl-[(4'-dimethylaminophenyl)-(2-chloro-5-nitrophenyl)methyl]thioether], the Ki under setting [1] worked out at 227 nM.
